From patent US20230372356A1, “CLOMIPRAMINE FOR THE TREATMENT OF ALZHEIMER'S DISEASE” (National Institute of Immunology, priority 2022, published 2023)

How the values were obtained:
[1] = system: APP/PS1 transgenic (TgAD) mouse model for AD; assay: Y-maze test in TgAD mice; type: in vivo
Protocol: (§1) Next, the effect of clomipramine was tested in an in vivo mouse model of AD. For this, Amyloid Precursor Protein (APP)/Presenillin 1 (PS1) transgenic (TgAD) mouse model for AD (strain name B6C3-Tg APPswe, PSEN1dE9 85Dboa; stock number 004462) was used. Wild type and transgenic (TgAD) mice were genotyped using genomic DNA isolated from mouse tail and PCR primers according to the Jackson laboratory protocol. Clomipramine hydrochloride, obtained from Sigma (C-7291), was dissolved in ultrapure MQ just before the injection and 100 μl of this solution was injected intraperitonially (I.P.injections) to each mouse of 23-25 g in weight (25 mg/kg body weight) for 45 days. Various behaviour tests (Morris water maze, Y-maze and Radial arm maze) were performed on clomipramine/saline injected mice.
For Y-Maze test, animals were habituated in the Y-shaped maze for 3 min with one of the arms blocked then their spontaneous alternations were recorded with all arms open for 5 min (Miedel, Patton et al. 2017). The number of alternations was recorded manually and percent spontaneous alternations were calculated as mentioned below: […]
Y-maze test is an initial test of memory function. […] The memory function was tested when the animal was returned to the maze with all arms open and the tendency to spend time in the new or familiar arms was monitored.

TgAD cortex = assay: Western blot of cortex region of brain of clomipramine-treated TgAD mice; type: in vivo, mouse
Protocol: The animals used in the above-mentioned behavioral tests were euthanized and cortex region of brain was dissected out for biochemical analysis. The levels of Itch, TAp73, PCNA and cleaved caspase-3 were determined with Western blotting (FIG. 9A). FIGS. 9B-9F show the quantification of the levels of Itch, TAp73, PCNA and cleaved caspase-3 of the Western blot of FIG. 9A. After analysis of six animals from each group, it was observed that TAp73 protein levels, which were reduced in TgAD cortex, were much higher in clomipramine treated TgAD brains. […] Importantly, CRNA which is exacerbated in TgAD cortex was reversed in clomipramine-treated mice as indicated by decrease in PCNA and cleaved caspase 3 (FIG. 9A).

[2] = system: Aβ42 treated cortical neurons; assay: BrdU incorporation / TUNEL labelling of Aβ42-treated cortical neurons; type: cell-based, rat
Protocol: Subsequently, BrdU incorporation and TUNEL labelling was performed to detect DNA replication and apoptosis, respectively. […] These findings indicate that clomipramine inhibits CRNA in AD neurons by preventing TAp73 degradation.
To another set of cells, BrdU was added after 48 h to label the neurons undergoing the replication (cell cycle re-entry). After that TUNEL assay was performed to label the cells undergoing apoptosis (FIG. 3G). The number of double positive cells were scored and plotted in the graph (FIG. 3H).

[3] = system: AD transgenic mouse model (Tg) cortical neurons; assay: Western blot of cortical neuron lysate from AD transgenic mouse model (Tg) treated with clomipramine; type: cell-based; conditions: Western blot (FIG. 2A)
Source text: The effect of clomipramine on cell cycle related neuronal apoptosis (CRNA) was also explored in AD transgenic mouse model (Tg) cortical neurons (in this mouse model, there is an increased production of Aβ42 which induces neurodegeneration similar to AD patients).

[4] = system: APP/PS1 transgenic (TgAD) mouse model for AD; assay: Radial arm (8-arm) maze test in TgAD mice; type: in vivo
Protocol: as §1, with “Various behaviour tests (Morris water maze, Y-maze and Radial arm maze) were performed on clomipramine/saline injected mice.” left out
For radial arm (8-arm) maze test, mice were given restricted amount of food until their bodyweight reduced to 85% of the initial weight for two days prior to habituation in the maze. […] On the test day, all arms were opened and same five arms were baited as in trial sessions and their series of entries were recorded manually (Miyakawa, Yamada et al. 2001), from which the percentage of working and reference memory errors were calculated. The mouse entering an arm containing food where it had previously entered, was counted as working memory error (short term memory) and if the mouse entered in an arm without bait, was counted as reference memory error (long term memory for position of the baited arms). […]

[5] = system: Aβ42-treated cortical neurons; assay: Western blot of lysates of Aβ42-treated rat cortical neurons treated with clomipramine; type: cell-based; conditions: for cell cycle related neuronal apoptosis by immunoblotting (PCNA, cleaved caspase-3): 48 h (FIGS. 3D-3F)
Source text: The effect of clomipramine on cell cycle related neuronal apoptosis (CRNA) was investigated in Aβ42-treated cortical neurons (Aβ42 peptide induces neurodegeneration in AD patients). The TAp73 levels were restored upon clomipramine treatment (FIG. 1A). […] FIGS. 1B, 1C, and 1D show the quantification of TAp73, PCNA, and cleaved caspase-3 levels of the Western blot of FIG. 1A.
To determine an effective concentration of clomipramine, Aβ42 treated rat cortical neurons were subjected to different concentrations (10 nM to 100 nM) of clomipramine for 48 h. Lysates were prepared and immunoblotting was performed.
After 48 h, one set of cells were lysed, lysates were prepared and the lysates were subjected to immunoblotting.

[6] = Tolerability of chronic clomipramine treatment in WT/TgAD mice; type: in vivo, mouse
Protocol: as §1
Radial arm maze test was also performed to assess the long term as well as short term memory of mice (Penley, Gaudet et al. 2013, Fredriksson, Sreedharan et al. 2019). For this purpose, the 24 h food deprived mice were placed on the central platform of 8-arm maze and allowed to explore the maze for food (bait) placed at the end of each arm as depicted in FIG. 8A. Each training/testing session was 10 min long. […] TgAD mice group committed more reference and working memory errors than WT.

[7] = system: APP/PS1 transgenic (TgAD) mouse model for AD; assay: Morris water maze test in TgAD mice; type: in vivo; conditions: 25 mg/kg I.P. for 45 days
Protocol: as §1
For Morris water maze test, animals were subjected to three trials per session and one session a day, for five days. Each trial was for 60 s in which mice had to reach the hidden platform in the water, and the average time per session was recorded as escape latency. After the escape training, the platform was removed for the probe trial test. It tested the retention of spatial memory at 24 h after training (Vorhees and Williams 2006, Nunez 2008). The number of times a mouse crossed the probe, the time spent in the target quadrant, and swim speed were recorded using ANY-maze software (Stoelting Co., USA).
For in vivo studies, ˜6 months old WT/TgAD mice were intraperitonially injected with 25 mg/kg body weight of clomipramine for 45 days (FIG. 4A) and subjected to various behavior tests. […] After five days of training, probe trial was performed and observed that WT mice spent […] time searching for the platform in the area of previous location (target quadrant) than the TgAD reflected by FIG. 5B. […] These observations indicate improved spatial learning in TgAD mice upon clomipramine treatment.

TAp73 = assay: Immunoprecipitation of TAp73 and ubiquitination blot in presence of proteasome inhibitor MG132; type: cell-based, rat; conditions: TAp73 immunoprecipitated in presence of MG132 (FIG. 2B)
[8] = TgAD mice, 25 mg/kg I.P. 45 days (FIG. 9A)
[9] = 4 groups of mice treated with clomipramine and saline, 25 mg/kg I.P. 45 days

SMILES: CN(C)CCCN1c2ccccc2CCc2ccc(Cl)cc21 [clomipramine]
- Y-maze spontaneous alternation ([1]; TgAD mice, 25 mg/kg I.P. for 45 days, compared to TgAD): improvement of spontaneous alternation
- Y-maze total number of arm entries ([1]; all groups, 25 mg/kg I.P. for 45 days (FIG. 7C)): no significant changes
- TAp73 protein levels in cortex (TgAD cortex; TgAD brains, 25 mg/kg I.P. 45 days, six animals per group (FIGS. 9A, 9B)): much higher
- PCNA in cortex (CRNA) (TgAD cortex; [8]): decrease
- cleaved caspase 3 in cortex (CRNA) (TgAD cortex; [8]): decrease
- BrdU/TUNEL double positive cells (CRNA) ([2]; 75 nM compared with 100 nM clomipramine, 48 h (FIGS. 3G, 3H)): more potent in preventing CRNA
- BrdU+/TUNEL+ cells (CRNA) ([2]; Aβ42 treated cortical neurons (FIGS. 3A, 3B)): significant reduction
- PCNA (cell cycle re-entry) [3]: significant decrease
- TAp73 levels [3]: restored
- cleaved caspase 3 (apoptosis) [3]: significant decrease
- Radial arm maze reference memory errors (long term memory) ([4]; 25 mg/kg I.P. for 45 days (FIG. 8B)): significant improvement
- Radial arm maze working memory errors (short term memory) ([4]; 25 mg/kg I.P. for 45 days (FIG. 8C)): significant improvement
- cell cycle related neuronal apoptosis by immunoblotting (PCNA, cleaved caspase-3) ([5]; 75 nM clomipramine): effective in reducing cell cycle related neuronalapoptosis
- TAp73 levels ([5]; 75 nM clomipramine, 48 h, tested 10 nM to 100 nM (FIG. 3C)): restoration in TAp73 levels was observed
- cell cycle related neuronal apoptosis by immunoblotting (PCNA, cleaved caspase-3) ([5]; 100 nM clomipramine): more apoptosis was observed
- TAp73 levels ([5]; 100 nM clomipramine, 48 h, tested 10 nM to 100 nM (FIG. 3C)): restoration in TAp73 levels was observed
- TAp73 levels ([5]; Aβ42-treated cortical neurons, Western blot (FIG. 1A, 1B)): restored
- PCNA (cell cycle re-entry) ([5]; Aβ42-treated cortical neurons, Western blot (FIG. 1A, 1C)): significant decrease
- cleaved caspase 3 (apoptosis) ([5]; Aβ42-treated cortical neurons, Western blot (FIG. 1A, 1D)): significant decrease
- food intake [6, 9]: No significant differences
- water intake [6, 9]: No significant differences
- side effects of chronic treatment ([6]; mice, 25 mg/kg I.P. for 45 days): no major side effects
- swimming speed ([6]; wild-type mice, clomipramine vs saline (FIG. 6A), p>0.05): almost unchanged
- body weight ([6]; wild-type mice, clomipramine vs saline (FIG. 6B), p>0.05): almost unchanged
- learning and memory abilities ([6]; wild-type mice, clomipramine vs saline, p>0.05): almost unchanged
- Morris water maze: time to reach the hidden platform (escape latency) ([7]; five days of training (FIG. 4B)): marked improvement
- Morris water maze: escape latency on the last day of training ([7]; last day (FIGS. 4B, 4C, 5A)): almost similar to the WT mice
- Morris water maze probe trial: crossing of target quadrant area ([7]; platform removed (FIG. 5B)): more frequently, almost similar to WT mice
- ubiquitination of TAp73 (TAp73): less ubiquitination of TAp73
